Experimental data taken from the Deep4Chem optical property database.
Values joined by “and” are separate entries in the source; they are usually repeats but may differ in a detail not shown here. Identical values can stand only once. Each block holds one compound with its values, some of them ahead of it.

Test: solvent given as SMILES

SMILES: Cc1ccc(-n2cccc2)cc1
fluorescence lifetime (in CC#N): 5.5 ns
fluorescence lifetime (in CCCCCC): 4 ns

SMILES: N#Cc1ccc(N)cc1
fluorescence lifetime (in C1CCCCC1): 5.6 ns
fluorescence lifetime (in CC#N): 2.6 ns
fluorescence lifetime (in CCCCCC): 3.2 ns
fluorescence lifetime (in CCO): 0.68 ns
fluorescence lifetime (in O): 0.067 ns
fluorescence lifetime (in OCC(F)(F)F): 0.13 ns

SMILES: N#Cc1cc(C#Cc2c(F)c(F)nc(F)c2F)c(C#Cc2c(F)c(F)nc(F)c2F)cc1C#N
fluorescence lifetime (in CC#N): 3.92 ns

SMILES: c1ccc(-c2nn(-c3ccccc3)c3nc4ccc(-n5c6ccccc6c6ccccc65)cc4cc23)cc1
fluorescence lifetime (in C1CCCCC1): 17.6 ns
fluorescence lifetime (in C1CCOC1): 19.1 ns
fluorescence lifetime (in CC#N): 21.8 ns
fluorescence lifetime (in CC(C)=O): 21.6 ns
fluorescence lifetime (in CCCCCl): 19.1 ns
fluorescence lifetime (in CCCCOCCCC): 19.4 ns
fluorescence lifetime (in CN(C)C=O): 20.2 ns

SMILES: CCN1C(=CC2=C([O-])C(=Cc3[se]c4ccccc4[n+]3CC)C2=O)[Se]c2ccccc21
fluorescence lifetime (in CO): 1.17 ns
fluorescence lifetime (in ClC(Cl)Cl): 4.15 ns

SMILES: C#CCNC1=C2C=C(c3cc4n(c3)[B-](F)(F)[N+]3=CC=CC3=C4c3c(C)cc(C)cc3C)C(C)=[N+]2[B-](F)(F)n2c(C)ccc21
fluorescence lifetime (in C1CCCCC1): 2.3 ns
fluorescence lifetime (in CCOC(C)=O): 0.58 ns

SMILES: CC1(C)c2ccccc2N(c2ccc(-c3nc(-c4ccccc4)cc(-c4ccccc4)n3)cc2)c2ccccc21
fluorescence lifetime (in Cc1ccccc1): 6.48 ns
fluorescence lifetime (in ClCCl): 18.2 ns

SMILES: CC(C)(C)OC(=O)n1ccc2c3ccc4cccc5ccc(cc21)c3c54
fluorescence lifetime (in CCOC(C)=O): 8.29 ns

SMILES: F[B-]1(F)Oc2ccccc2-c2c3c(c4c([n+]21)CCc1ccccc1-4)CCc1ccccc1-3
fluorescence lifetime (in ClCCl): 2.15 ns

SMILES: CC1=N/C(=C\c2cc(N(C)C)ccc2C#N)C(=O)N1C
fluorescence lifetime (in C1CCOC1): 14.8 ns
fluorescence lifetime (in CC#N): 7 ns
fluorescence lifetime (in CCCCCC): 24.7 ns

SMILES: CC[n+]1c(C=C2C(=O)C(C=C3N(C)c4ccccc4C3(C)C)=C2[O-])[se]c2ccccc21
fluorescence lifetime (in CO): 0.41 ns
fluorescence lifetime (in ClC(Cl)Cl): 2.44 ns

SMILES: COc1ccc(Nc2nc(/C=C/c3ccccc3)[n+]([O-])c3c2CCCC3)cc1
fluorescence lifetime (in ClCCl): 8.2 ns

SMILES: COc1ccc(O)c(-c2nc(C)c3n2CCCC3)c1
fluorescence lifetime (in ClCCl): 1.12 ns

SMILES: CC1=CC2=Nc3nc(C)[n+](C)cc3CN2C=C1
fluorescence lifetime (in CC#N): 5.45 ns
fluorescence lifetime (in CCO): 5.31 ns
fluorescence lifetime (in O): 5.23 ns

SMILES: Cc1cc(C)n2c1C=C1c3ccccc3C(c3c[nH]c4ccccc34)=[N+]1[B-]2(F)F
fluorescence lifetime (in ClCCl): 6.42 ns

SMILES: C=Cc1cc2ccc(N(CC)CC)cc2oc1=O
fluorescence lifetime (in CC#N): 2.84 ns

SMILES: O=C1/C(=C2\Sc3ccc(S(=O)(=O)Cl)cc3C2=O)Sc2ccc(S(=O)(=O)Cl)cc21
fluorescence lifetime (in C1COCCO1): 12 ns
fluorescence lifetime (in CS(C)=O): 0.17 ns

SMILES: C(=C\c1ccccc1)/c1ccccc1
fluorescence lifetime (in CC#N): 0.07 ns

SMILES: O=C1c2ccccc2-c2cccc(O)c21
fluorescence lifetime (in C1CCCCC1): 1.24 ns
fluorescence lifetime (in C1COCCO1): 3.38 ns
fluorescence lifetime (in CC#N): 9.67 ns
fluorescence lifetime (in CC(C)O): 5.5 ns
fluorescence lifetime (in CCCCO): 5.22 ns
fluorescence lifetime (in CCCO): 4.82 ns
fluorescence lifetime (in CCO): 4.85 ns
fluorescence lifetime (in CCOC(C)=O): 5.48 ns
fluorescence lifetime (in CCOCC): 2.39 ns
fluorescence lifetime (in CO): 3.61 ns

SMILES: c1ccc2c(c1)CCc1ccccc1N2c1c2ccccc2c(N2c3ccccc3CCc3ccccc32)c2ccccc12
fluorescence lifetime (in Cc1ccccc1): 34 ns

SMILES: CCCCN1C(=O)c2cc(Br)c3c4c(Br)cc5c6c(cc(Br)c(c7c(Br)cc(c2c37)C1=O)c64)C(=O)N(CCCC)C5=O
fluorescence lifetime (in ClC(Cl)Cl): 2.9 ns

SMILES: COc1ccc(C2=CC(c3ccc4cc(N(C)C)ccc4c3)=[O+][B-](F)(F)O2)cc1
fluorescence lifetime (in C1CCOC1): 2.68 ns
fluorescence lifetime (in CC#N): 0.42 ns
fluorescence lifetime (in CC(C)=O): 0.72 ns
fluorescence lifetime (in CS(C)=O): 0.54 ns
fluorescence lifetime (in Cc1ccccc1): 2.96 ns
fluorescence lifetime (in ClC(Cl)Cl): 3.54 ns
fluorescence lifetime (in ClCCl): 2.71 ns

SMILES: CCc1c(C)c2n(c1C)[B-](F)(F)[N+]1=C(c3ccc[nH]3)c3ccccc3C1=C2
fluorescence lifetime (in ClCCl): 6.41 ns

SMILES: COC(=O)c1cc(=O)n(C)c2cc(-c3ccc(Oc4ccccc4)cc3)sc12
fluorescence lifetime (in ClCCl): 2.83 ns

SMILES: CN(C)CCCN1c2ccccc2CCc2ccccc21
fluorescence lifetime (in CC#N): 0.85 ns
fluorescence lifetime (in CO): 0.54 ns
fluorescence lifetime (in O): 1.12 ns

SMILES: [O-]c1ccc2ccccc2c1
fluorescence lifetime (in O): 9.43 ns

SMILES: c1cc2c3c(cccc3c1)C(N1CCOCCOCCN(C3=Nc4cccc5cccc3c45)CCOCC1)=N2
fluorescence lifetime (in CC#N): 0.51 ns

SMILES: CC(C)(C)c1cc(-c2cc3c(cc(-c4cc(C(C)(C)C)cc(C(C)(C)C)c4)n3-c3ccc(C(=C(c4ccccc4)c4ccccc4)c4ccccc4)cc3)n2-c2ccc(C(=C(c3ccccc3)c3ccccc3)c3ccccc3)cc2)cc(C(C)(C)C)c1
fluorescence lifetime (in ClCCl): 1.6 ns

SMILES: Nc1ccc2c(C(F)(F)F)cc(=O)oc2c1
fluorescence lifetime (in C1CCC2CCCCC2C1): 1.9 ns
fluorescence lifetime (in C1CCCCC1): 1.2 ns
fluorescence lifetime (in C1COCCO1): 4.65 ns
fluorescence lifetime (in CC1CCCCC1): 1.22 ns
fluorescence lifetime (in CC#N): 5.2 ns and 5.13 ns
fluorescence lifetime (in CC(C)=O): 4.97 ns
fluorescence lifetime (in CC(C)O): 5.28 ns
fluorescence lifetime (in CCC(C)CC): 0.842 ns
fluorescence lifetime (in CCCC(C)C): 0.406 ns
fluorescence lifetime (in CCCCCC): 0.854 ns
fluorescence lifetime (in CCCCCCCCO): 5.4 ns
fluorescence lifetime (in CCCCCCO): 5.29 ns
fluorescence lifetime (in CCCCO): 5.24 ns
fluorescence lifetime (in CCO): 5.38 ns
fluorescence lifetime (in CCOC(C)=O): 4.67 ns
fluorescence lifetime (in CN(C)C=O): 5.22 ns
fluorescence lifetime (in CO): 5.31 ns
fluorescence lifetime (in CS(C)=O): 5 ns

SMILES: CCC1(CC)c2ccccc2-c2c1c1c(c3c2C(CC)(CC)c2cc(/C=C/c4cccs4)ccc2-3)C(CC)(CC)c2ccccc2-1
fluorescence lifetime (in C1CCOC1): 1.5 ns

SMILES: c1ccc2c(c1)[nH]c1ccccc12
fluorescence lifetime (in CC#N): 15.1 ns
fluorescence lifetime (in CCCCCC): 14.2 ns
fluorescence lifetime (in CCO): 16.1 ns

SMILES: O=c1oc2ccccc2cc1/C=C/c1ccc([N+](=O)[O-])cc1
fluorescence lifetime (in CC#N): 0.08 ns

SMILES: CCCCCCCCOc1cc(/C=C/c2cc[n+](Cc3ccc(C)cc3)cc2)c(OCCCCCCCC)cc1/C=C/c1cc[n+](Cc2ccc(C)cc2)cc1
fluorescence lifetime (in ClCCl): 1.23 ns

SMILES: Cc1c(C)c(B(c2c(C)c(C)c(C#N)c(C)c2C)c2c(C)c(C)c(N3c4ccccc4Oc4ccccc43)c(C)c2C)c(C)c(C)c1C#N
fluorescence lifetime (in c1ccc([Si](c2ccccc2)(c2ccc(-n3c4ccccc4c4ccccc43)cc2)c2ccc(-n3c4ccccc4c4ccccc43)cc2)cc1): 32 ns

SMILES: CC(C)(C)NC1=CC2=c3cc(NC(C)(C)C)c4nc(C(F)(F)C(F)(F)C(F)(F)F)nc5c(NC(C)(C)C)cc(c3c54)C3=CC(NC(C)(C)C)=C4N=C(C(F)(F)C(F)(F)C(F)(F)F)N=C1C4C32 (stereo not given)
fluorescence lifetime (in C1CCOC1): 6.1 ns

SMILES: CCC1=C(C)C2=C(C)c3c(I)c(I)c(I)n3[B-](F)(F)[N+]2=C1C
fluorescence lifetime (in C1CCCCC1): 0.331 ns
fluorescence lifetime (in CC(C)=O): 0.206 ns
fluorescence lifetime (in CCO): 0.221 ns
fluorescence lifetime (in CCOC(C)=O): 0.241 ns
fluorescence lifetime (in CO): 0.214 ns
fluorescence lifetime (in OCC(F)(F)F): 0.21 ns

SMILES: Cc1ccc(-c2cc(-c3ccccc3)c3c(N)nc(N4CCCC4)c(C#N)c3n2)cc1
fluorescence lifetime (in CC#N): 10.3 ns
fluorescence lifetime (in CC(C)=O): 9.9 ns
fluorescence lifetime (in CC(C)O): 10.4 ns
fluorescence lifetime (in CO): 8.5 ns
fluorescence lifetime (in ClC(Cl)Cl): 13.1 ns
fluorescence lifetime (in ClCCl): 13.1 ns
fluorescence lifetime (in c1ccccc1): 12.6 ns

SMILES: Cc1oc2c(Cl)cc3c(C)cc(=O)oc3c2c1C
fluorescence lifetime (in C1COCCO1): 0.08 ns
fluorescence lifetime (in CC#N): 0.15 ns
fluorescence lifetime (in CCO): 0.79 ns
fluorescence lifetime (in OCC(F)(F)F): 2.4 ns

The next lines start with the values.

fluorescence lifetime (in ClCCl): 6.6 ns
SMILES: CC(C)(C)c1ccc(-c2nc3c4ccc(-c5ccc6ccccc6c5)cc4c4cc(-c5ccc6ccccc6c5)ccc4c3n2-c2ccc(C(C)(C)C)cc2)cc1

fluorescence lifetime (in C1CCCCC1): 4.9 ns
fluorescence lifetime (in CCOC(C)=O): 4.9 ns
fluorescence lifetime (in CO): 5.1 ns
SMILES: c1ccc2c(-n3c4ccccc4c4ccccc43)cccc2c1

fluorescence lifetime (in C1CCOC1): 3.1 ns
fluorescence lifetime (in CC(C)O): 3.5 ns
fluorescence lifetime (in CO): 2.9 ns
fluorescence lifetime (in CS(C)=O): 3.7 ns
fluorescence lifetime (in ClC(Cl)Cl): 1.2 ns
fluorescence lifetime (in ClCCl): 1.4 ns
SMILES: Cc1ccc(-n2c(-c3ccccc3O)nc(-c3ccccc3O)c2-c2ccccc2O)cc1

fluorescence lifetime (in C1CCCCC1): 5.1 ns
fluorescence lifetime (in CCOC(C)=O): 4.6 ns
fluorescence lifetime (in CO): 4.3 ns
SMILES: c1ccc2c(-n3cnc4ccccc43)cccc2c1

fluorescence lifetime (in C1CCOC1): 7.9 ns
SMILES: c1ccc(/C(=C(\c2ccccc2)c2cc(-c3ccccc3)ccc2-c2ccc(-c3ccccc3)cc2)c2cc(-c3ccccc3)ccc2-c2ccc(-c3ccccc3)cc2)cc1

fluorescence lifetime (in ClC(Cl)Cl): 6.62 ns
SMILES: c1ccc(N(c2ccccc2)c2ccc(-c3ccc(-c4ccc(-c5cccs5)c5nsnc45)s3)cc2)cc1

fluorescence lifetime (in CC#N): 1.83 ns
SMILES: C(=C\c1nc2c3ccccc3c3ccccc3c2o1)/c1ccccc1

fluorescence lifetime (in ClC(Cl)Cl): 3.94 ns
SMILES: CC1=CC(C)=[N+]2C1=C(c1ccc(I)cc1)c1c(C)cc(C)n1[B-]2(OCc1ccccc1)OCc1ccccc1

fluorescence lifetime (in ClCCl): 1.74 ns
SMILES: CCCCn1c(-c2ccc(-c3nnc(-c4ccc5ccccc5c4)o3)cc2)nc(-c2ccccc2)c1-c1ccccc1

fluorescence lifetime (in ClCCl): 2.67 ns
SMILES: CC(C)(C)c1ccc(-c2c3c(c(-c4ccccc4)c4cc5ccccc5cc24)Cc2c(c(-c4ccccc4)c4cc5ccccc5cc4c2-c2ccc(C(C)(C)C)cc2)C3)cc1

fluorescence lifetime (in ClCCl): 2.72 ns
SMILES: CCN(CC)c1ccc2c(c1)oc(=O)c1c(C)nc3c(cnn3-c3ccccc3)c12

fluorescence lifetime (in CC#N): 1.47 ns
SMILES: C(#Cc1ccccc1C#Cc1ccccc1)c1ccccc1

fluorescence lifetime (in CC#N): 1.96 ns
fluorescence lifetime (in CCCCCC): 2.24 ns
fluorescence lifetime (in CO): 1.86 ns
fluorescence lifetime (in ClC(Cl)Cl): 2.19 ns
SMILES: c1ccc2c(-c3cc(-c4nccs4)nc(-c4nccs4)c3)cccc2c1

fluorescence lifetime (in CCO): 6.1 ns
fluorescence lifetime (in ClCCl): 6.5 ns
SMILES: COCc1ncc(-c2c3ccccc3c(-c3cnc(COC)nc3)c3ccccc23)cn1

fluorescence lifetime (in ClCCl): 2.8 ns
SMILES: COc1ccc(-c2c3ccccc3c(C#Cc3ccccc3)c3ccccc23)cc1

fluorescence lifetime (in CC#N): 2.32 ns
fluorescence lifetime (in CCCCCC): 3.31 ns
fluorescence lifetime (in CO): 2.5 ns
fluorescence lifetime (in ClC(Cl)Cl): 2.34 ns
SMILES: c1ccc2c(-c3cc(-c4nccs4)nc(-c4nccs4)c3)c3ccccc3cc2c1

fluorescence lifetime (in C1CCCCC1): 2.9 ns
fluorescence lifetime (in CCOC(C)=O): 0.92 ns
SMILES: CC1=[N+]2C(=C(c3ccc(C(=O)c4ccccc4)cc3)c3ccc(C)n3[B-]2(F)F)C=C1c1cc2n(c1)[B-](F)(F)[N+]1=CC=CC1=C2c1c(C)cc(C)cc1C

fluorescence lifetime (in CC#N): 0.78 ns
SMILES: F[B-]1(F)n2c(-c3ccccc3)cc(-c3ccccc3)c2N=C2C(c3ccccc3)=CC(c3ccccc3)=[N+]21

fluorescence lifetime (in ClCCl): 11.4 ns
SMILES: CCN(CC)c1ccc2cc(-c3nc4c5cccc6ccc7cccc(c7c65)c4n3-c3ccc(C(C)(C)C)cc3)c(=O)oc2c1
